The source of these data is PMC11157048 (Frontiers in Pharmacology, 2024).

Each structure is given as a SMILES string. Read-outs that look alike come from different tables or passages of the source.

The subject of data set [1] is rat liver microsomes (RLM). As to the kind of experiment: Inhibition of aumolertinib metabolism in rat liver microsomes (screen, IC50, Ki). (In general: Liver microsomes are vesicles of endoplasmic reticulum, rich in cytochrome P450 enzymes.)
Protocol: (§1) When screening for inhibitors, the amount of RLM in the system and the reaction time were optimized and set to 0.5 mg/mL and 30 min, respectively. The concentration of the inhibitor was set at 100 μM. […] The above mixture was pre-incubated at 37 °C for 5 min, and then 1 mM NADPH was added to initiate the reaction, and incubated for another 30 min. Afterwards, 400 μL of cold acetonitrile and 20 μL of diazepam (500 ng/mL) were added to the system to stop the reaction. After vortexing for 2 min, the mixture is centrifuged at 16,200 g for 10 min and the supernatant is subjected to analysis by UPLC-MS/MS for the detection of analytes.
The subject of data set [2] is aumolertinib metabolism in rat liver microsomes. Briefly: in vitro. Particulars: probe aumolertinib 25 μM.
Protocol: as §1
The subject of data set [3] is human liver microsomes (HLM). As to the kind of experiment: Inhibition of aumolertinib metabolism in human liver microsomes (IC50, Ki). The class given is in vitro ADME. Particulars: HLM.
Protocol: as §1
For data set [4], the system named is aumolertinib metabolism in human liver microsomes. The data set is described as above. The class given is in vitro ADME. Particulars: human, human liver microsomes, probe aumolertinib 20 μM.
Protocol: as §1
Data set [5] addresses CYP3A4.1 (Homo sapiens, UniProt P08684).
The conditions of data set [6]: mouse, in vivo, po.
Details of data set [7]: method as in Zhou et al., 2021; Liu et al., 2022a; Liu et al., 2022b. Particulars: ref Zhou et al., 2021, Liu et al., 2022a, 2022b; cited from earlier work.
The conditions of data set [8]: rat, in vivo, po, 11 mg/kg.
Data set [9] in a line: Pharmacokinetics in AAV8-CYP3A4*1 mice.
The mark [10] stands for this setting: aumolertinib 16.5 mg/kg oral alone (Aum).
Where [11] appears, read: carvedilol 7.5 mg/kg 0.5 h before aumolertinib 16.5 mg/kg oral (Car+Aum).

Sequence of CYP3A4.1 (P08684 whole entry): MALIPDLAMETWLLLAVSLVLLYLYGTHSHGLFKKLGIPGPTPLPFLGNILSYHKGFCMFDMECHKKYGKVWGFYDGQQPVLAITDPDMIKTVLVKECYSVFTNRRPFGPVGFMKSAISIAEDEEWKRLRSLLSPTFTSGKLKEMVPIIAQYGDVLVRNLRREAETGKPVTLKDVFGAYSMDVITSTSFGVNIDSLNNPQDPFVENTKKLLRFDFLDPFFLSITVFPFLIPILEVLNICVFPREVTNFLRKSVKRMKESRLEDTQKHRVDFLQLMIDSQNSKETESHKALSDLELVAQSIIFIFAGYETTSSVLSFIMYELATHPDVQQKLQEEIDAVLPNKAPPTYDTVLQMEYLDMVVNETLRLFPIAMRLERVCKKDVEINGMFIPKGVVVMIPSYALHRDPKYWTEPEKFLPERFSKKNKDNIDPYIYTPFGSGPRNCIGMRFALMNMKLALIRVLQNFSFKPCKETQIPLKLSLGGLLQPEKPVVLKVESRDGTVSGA

By Ki is commonly meant the equilibrium dissociation constant of an inhibitor or competing ligand from its target. Lower therefore signals tighter binding. Broadly, the IC50 is the concentration that gives 50% inhibition. The low end stands for inhibition by little substance, the high end for a need for much substance. As for `COc1ccccc1OCCNCC(O)COc1cccc2[nH]c3ccccc3c12` (stereo not shown) [Carvedilol], the inhibition mechanism result in [1] is “non-competitive and competitive mixed”; in data set [3], “non-competitive and competitive mixed”; in data set [5], “competitively inhibited”. The values for the Ki in [1] (Lineweaver-Burk secondary plot) and in [3] (Lineweaver-Burk secondary plot) were 16.7 µM and 8.81 µM, respectively. Also, the αKi in [1] (Lineweaver-Burk secondary plot) came out at 51.66 µM; in [3] (Lineweaver-Burk secondary plot), 47.76 µM. Moreover, the values for the IC50 at 30 min in data set [2] and in [4] were 27.3 ± 2.52 µM and 12.7 ± 0.59 µM, respectively.
Turning to `CCCc1nc2c(C)cc(-c3nc4ccccc4n3C)cc2n1Cc1ccc(-c2ccccc2C(=O)O)cc1` [Telmisartan], the inhibition mechanism result in data set [1] was “mixed (non-competitive and uncompetitive)”. Further, the α in [1] is given as 0.54; in data set [1] (listed as telmisartan), less than 1; in data set [3], 0.59; in [3] (listed as telmisartan), less than 1. The molecule further came in with an IC50 at 30 min in data set [2] of 12.8 ± 0.18 µM.
The term AUC(0-t) denotes exposure summed from dosing to a finite time, without extrapolation to infinity. Low readings indicate low exposure, high ones high exposure. As a reminder, the Cmax is the highest concentration seen after dosing. By Tmax is commonly meant the time at which the peak concentration occurs. On to `C=CC(=O)Nc1cc(Nc2nccc(-c3cn(C4CC4)c4ccccc34)n2)c(OC)cc1N(C)CCNC` [HAS-719], for which, in data set [6], the exposure AUC(0-t) amounted to 429.91 ± 178.00 ng·h/mL, the “AUC(0-∞)” value was 572.38 ± 354.11 ng·h/mL, the CLz/F amounted to 586.7 ± 249.8 mL/min/kg and the highest concentration (Cmax) was 23.01 ± 11.89 ng/mL. Moreover, in data set [6], the time to peak (Tmax) is 14.29 ± 13.44 h, the Vz/F was 773.46±1,086.45 L/kg and the t1/2z was 14.62 ± 18.23 h. Besides, the “plasma exposure relative to the parent drug” value in data set [7] is given as 40%. For the same molecule, in data set [8], the CLz/F came to 5750.5 ± 2617.5 mL/min/kg, the Vz/F was 1,913.68 ± 1,058.91 L/kg and the t1/2z was 3.69 ± 0.57 h. In addition, in data set [9] (setting [10]), the exposure AUC(0-t) worked out at 905.88 ± 375.90 ng·h/mL, the “AUC(0-∞)” value is 908.18 ± 374.69 ng·h/mL, the CLz/F was found to be 335 ± 128 mL/min/kg and the highest concentration (Cmax) was determined as 47.06 ± 20.43 ng/mL. Further, in data set [9] (setting [10]), the Tmax was found to be 10.71 ± 9.53 h, the Vz/F was 113.97 ± 104.36 L/kg and the t1/2z was 3.80 ± 2.94 h. Also, in data set [9] (setting [11]), the exposure AUC(0-t) was determined as 663.56 ± 198.24 ng·h/mL, the “AUC(0-∞)” value turned out to be 669.24 ± 196.18 ng·h/mL, the CLz/F amounted to 423.8 ± 103 mL/min/kg and the Cmax was found to be 34.97 ± 15.02 ng/mL. Further, in [9] (setting [11]), the Tmax stood at 17.86 ± 10.53 h, the Vz/F was found to be 203.88 ± 121.79 L/kg and the t1/2z was 5.34 ± 2.61 h.
